In patent EP2818472A1, “Imidazo[4,5-c]pyridine and pyrrolo[3,2-c]pyridine compounds as G-protein-coupled receptor kinase 5 (GRK5) modulators” (Max-Planck-Gesellschaft zur Förderung der Wissenschaften …, priority 2013, dated 2014):

test system: beta-TC6 cells; test: Insulin HTRF assay (relative activity Ar) in beta-TC6 cells; type: cell-based, mouse; settings: Mus musculus, Beta-TC6, 4 h, insulin HTRF, supernatant of beta-TC6 cells, incubation with test compound at 37°C for 2, 3, 4h; read-out: Ar (relative activity)
Method in brief: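 beta-TC6 cells (15k/well, seeded 24 or 48 h) washed, then exposed to compound in induction buffer (0.5% DMSO final) for 2, 3 or 4 h at 37°C.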

Row | Compound | Emax [%]
1 | COc1ccccc1Nc1nc2cnc(-c3cccnc3)cc2n1C [Compound 613, N-(2-methoxyphenyl)-1-methyl-6-(3-pyridyl)imidazo[4,5-c]pyridin-2-amine] | 50 to 100
2 | Cn1c(NCc2ccccc2)nc2cnc(-c3ccc(N4CCOCC4)cc3)cc21 [Compound 614, N-benzyl-1-methyl-6-(4-morpholinophenyl)imidazo[4,5-c]pyridin-2-amine] | 50 to 100
3 | CN(C)c1ccc(-c2cc3c(cn2)nc(NCc2ccccc2)n3C)cc1 [Compound 615, N-benzyl-6-(4-dimethylaminophenyl)-1-methyl-imidazo[4,5-c]pyridin-2-amine] | > 100
4 | COc1cc(Nc2cc3c(cn2)nc(NCc2ccccc2)n3C)cc(OC)c1OC [Compound 616, N2-benzyl-1-methyl-N6-(3,4,5-trimethoxyphenyl)imidazo[4,5-c]pyridine-2,6-diamine] | 50 to 100
5 | CC(=O)Nc1ccc(Nc2cc3c(cn2)nc(NCc2ccccc2)n3C)cc1 [Compound 617, N-[4-[[2-(benzylamino)-1-methyl-imidazo[4,5-c]pyridin-6-yl]amino]phenyl]acetamide] | 50 to 100
6 | COc1ccc(Nc2cc3c(cn2)nc(NCc2ccccc2)n3C)cn1 [Compound 618, N2-benzyl-N6-(6-methoxy-3-pyridyl)-1-methyl-imidazo[4,5-c]pyridine-2,6-diamine] | 50 to 100
7 | CN(C)c1cccc(Nc2cc3c(cn2)nc(NCc2ccccc2)n3C)c1 [Compound 619, N2-benzyl-N6-[3-(dimethylamino)phenyl]-1-methyl-imidazo[4,5-c]pyridine-2,6-diamine] | 50 to 100
8 | CN(C)c1cccc(-c2cc3c(cn2)nc(NCc2ccccc2)n3C)c1 [Compound 620, N-benzyl-6-[3-(dimethylamino)phenyl]-1-methyl-imidazo[4,5-c]pyridin-2-amine] | > 100
9 | COc1ccc(Nc2cc3c(cn2)nc(NCc2ccccc2)n3C)cc1 [Compound 621, N2-benzyl-N6-(4-methoxyphenyl)-1-methyl-imidazo[4,5-c]pyridine-2,6-diamine] | 50 to 100
10 | Cn1c(NCc2ccccc2)nc2cnc(Nc3cccc(O)c3)cc21 [Compound 622, 3-[[2-(benzylamino)-1-methyl-imidazo[4,5-c]pyridin-6-yl]amino]phenol] | 50 to 100
11 | Cn1c(NCc2ccccc2)nc2cnc(-c3cncnc3)cc21 [Compound 623, N-benzyl-1-methyl-6-pyrimidin-5-yl-imidazo[4,5-c]pyridin-2-amine] | 30 to 50
12 | Cn1cc(-c2cc3c(cn2)nc(NCc2ccccc2)n3C)cn1 [Compound 624, N-benzyl-1-methyl-6-(1-methylpyrazol-4-yl)imidazo[4,5-c]pyridin-2-amine] | 30 to 50
13 | Cn1c(NCc2ccccc2)nc2cnc(-c3ccc(N)nc3)cc21 [Compound 625, 6-(6-amino-3-pyridyl)-N-benzyl-1-methyl-imidazo[4,5-c]pyridin-2-amine] | > 100
14 | CN(C)C(=O)c1ccc(Nc2cc3c(cn2)nc(NCc2ccccc2)n3C)cc1 [Compound 626, 4-[[2-(benzylamino)-1-methyl-imidazo[4,5-c]pyridin-6-yl]amino]-N,N-dimethyl-benzamide] | 30 to 50
15 | CC(=O)Nc1cccc(Nc2cc3c(cn2)nc(NCc2ccccc2)n3C)c1 [Compound 627, N-[3-[[2-(benzylamino)-1-methyl-imidazo[4,5-c]pyridin-6-yl]amino]phenyl]acetamide] | 50 to 100
16 | CC(=O)c1cccc(Nc2cc3c(cn2)nc(NCc2ccccc2)n3C)c1 [Compound 628, 1-[3-[[2-(benzylamino)-1-methyl-imidazo[4,5-c]pyridin-6-yl]amino]phenyl]ethanone] | 30 to 50

Row | Compound | Emax [%]
17 | Cn1c(NCc2ccccc2)nc2cnc(Nc3cccc(F)c3)cc21 [Compound 629, N2-benzyl-N6-(3-fluorophenyl)-1-methyl-imidazo[4,5-c]pyridine-2,6-diamine] | 30 to 50
18 | Cn1c(Nc2ccccc2)nc2cnc(-c3ccc(N4CCOCC4)cc3)cc21 [Compound 630, 1-methyl-6-(4-morpholinophenyl)-N-phenyl-imidazo[4,5-c]pyridin-2-amine] | 50 to 100
19 | CN(C)c1ccc(-c2cc3c(cn2)nc(Nc2ccccc2)n3C)cc1 [Compound 631, 6-(4-dimethylaminophenyl)-1-methyl-N-phenyl-imidazo[4,5-c]pyridin-2-amine] | > 100
20 | COc1ccc(Nc2cc3c(cn2)nc(Nc2ccccc2)n3C)cc1OC [Compound 632, N6-(3,4-dimethoxyphenyl)-1-methyl-N2-phenyl-imidazo[4,5-c]pyridine-2,6-diamine] | 50 to 100
21 | Cn1c(Nc2ccccc2)nc2cnc(Nc3cccnc3)cc21 [Compound 633, 1-methyl-N2-phenyl-N6-(3-pyridyl)imidazo[4,5-c]pyridine-2,6-diamine] | 50 to 100
22 | Cn1c(Nc2ccccc2)nc2cnc(Nc3ccccc3)cc21 [Compound 634, 1-methyl-N2,N6-diphenyl-imidazo[4,5-c]pyridine-2,6-diamine] | 50 to 100
23 | Cn1c(Nc2ccccc2)nc2cnc(-c3cccc4ccccc34)cc21 [Compound 635, 1-methyl-6-(1-naphthyl)-N-phenyl-imidazo[4,5-c]pyridin-2-amine] | 30 to 50
24 | Cn1c(Nc2ccccc2)nc2cnc(Nc3ccncc3)cc21 [Compound 636, 1-methyl-N2-phenyl-N6-(4-pyridyl)imidazo[4,5-c]pyridine-2,6-diamine] | 50 to 100
25 | Cn1c(Nc2ccccc2)nc2cnc(Nc3ccccn3)cc21 [Compound 637, 1-methyl-N2-phenyl-N6-(2-pyridyl)imidazo[4,5-c]pyridine-2,6-diamine] | 30 to 50
26 | Cn1c(Nc2ccccc2)nc2cnc(Nc3cccc(O)c3)cc21 [Compound 638, 3-[(2-anilino-1-methyl-imidazo[4,5-c]pyridin-6-yl)amino]phenol] | 50 to 100
27 | Cn1c(Nc2ccccc2)nc2cnc(Nc3ccc(S(C)(=O)=O)cc3)cc21 [Compound 639, 1-methyl-N6-(4-methylsulfonylphenyl)-N2-phenyl-imidazo[4,5-c]pyridine-2,6-diamine] | 50 to 100
28 | Cn1c(NCC2CCCO2)nc2cnc(-c3ccc(N4CCOCC4)cc3)cc21 (centres unmarked) [Compound 640, 1-methyl-6-(4-morpholinophenyl)-N-(tetrahydrofuran-2-ylmethyl)imidazo[4,5-c]pyridin-2-amine] | 30 to 50
29 | COc1cc(Nc2cc3c(cn2)nc(NCC2CCCO2)n3C)cc(OC)c1OC (centres unmarked) [Compound 641, 1-methyl-N2-(tetrahydrofuran-2-ylmethyl)-N6-(3,4,5-trimethoxyphenyl)imidazo[4,5-c]pyridine-2,6-diamine] | 30 to 50
30 | Cn1c(NCC2CCCO2)nc2cnc(Nc3cccc(Cl)c3)cc21 (centres unmarked) [Compound 642, N6-(3-chlorophenyl)-1-methyl-N2-(tetrahydrofuran-2-ylmethyl)imidazo[4,5-c]pyridine-2,6-diamine] | 50 to 100
31 | Cn1c(NCC2CCCO2)nc2cnc(Nc3ccc(F)c(Cl)c3)cc21 (centres unmarked) [Compound 643, N6-(3-chloro-4-fluoro-phenyl)-1-methyl-N2-(tetrahydrofuran-2-ylmethyl)imidazo[4,5-c]pyridine-2,6-diamine] | 30 to 50
32 | COc1ncccc1-c1cc2c(cn1)nc(NCC1CCCO1)n2C (centres unmarked) [Compound 644, 6-(2-methoxy-3-pyridyl)-1-methyl-N-(tetrahydrofuran-2-ylmethyl)imidazo[4,5-c]pyridin-2-amine] | 50 to 100
